One assay relates to dengue virus type 2. Kind of assay: Antiviral activity against Dengue virus 2 measured at 48 hrs post-infection.
Details: not given; call rule not given here
It is filed as functional, organism-based.
A word on the EC50: it is the concentration at which the effect is half-maximal. Turning to `CN(C)CCCn1c2ccc(-c3cccc(/C(N)=N/O)c3)cc2c2cc(-c3cccc(/C(N)=N/O)c3)ccc21`, the EC50 result was “Not Active”.

For the compound `Cn1c2ccc(-c3cccc(/C(N)=N/O)c3)cc2c2cc(-c3cccc(/C(N)=N/O)c3)ccc21`, the concentration for a half-maximal effect (EC50) result was “Not Active”.

Staying with this assay, now noted: Dengue virus, 48 h; read-out: EC50.
`N/C(=N\O)c1cccc(-c2ccc3c(c2)c2cc(-c4cccc(/C(N)=N/O)c4)ccc2n3S(=O)(=O)c2cccc(F)c2)c1`: the EC50 stood at 3.1 µM.

Take `COc1ccc(S(=O)(=O)n2c3ccc(-c4cccc(/C(N)=N/O)c4)cc3c3cc(-c4cccc(/C(N)=N/O)c4)ccc32)c(OC)c1`: the EC50 worked out at 1.8 µM.

Take `COc1ccc(S(=O)(=O)n2c3ccc(-c4cccc(/C(N)=N/O)c4)cc3c3cc(-c4cccc(/C(N)=N/O)c4)ccc32)cc1OC`: the concentration for a half-maximal effect (EC50) is 5.7 µM.

Turning to `COc1ccc(F)cc1S(=O)(=O)n1c2ccc(-c3cccc(/C(N)=N/O)c3)cc2c2cc(-c3cccc(/C(N)=N/O)c3)ccc21`, the EC50 worked out at 2.8 µM.

As to `N/C(=N\O)c1cccc(-c2ccc3c(c2)c2cc(-c4cccc(/C(N)=N/O)c4)ccc2n3S(=O)(=O)c2ccccc2Cl)c1`, the concentration giving a half-maximal response (EC50) stood at 2.7 µM.

For `N/C(=N\O)c1cccc(-c2ccc3c(c2)c2cc(-c4cccc(/C(N)=N/O)c4)ccc2n3S(=O)(=O)c2cccc(Br)c2)c1`, the EC50 turned out to be 2.4 µM.

Regarding `N/C(=N\O)c1cccc(-c2ccc3c(c2)c2cc(-c4cccc(/C(N)=N/O)c4)ccc2n3CCCCOc2ccc3ccc(=O)[nH]c3c2)c1`, the 50% effective concentration (EC50) turned out to be 8.9 µM.

On to `N/C(=N\O)c1cccc(-c2ccc3c(c2)c2cc(-c4cccc(/C(N)=N/O)c4)ccc2n3S(=O)(=O)c2ccc(Br)cc2)c1`, for which the half-maximal effective concentration (EC50) was 5.4 µM.

In the case of `N/C(=N\O)c1cccc(-c2ccc3c(c2)c2cc(-c4cccc(/C(N)=N/O)c4)ccc2n3Cc2ccc(Br)c(F)c2)c1`, the concentration giving a half-maximal response (EC50) is 1.4 µM.

With `COc1ccc(S(=O)(=O)n2c3ccc(-c4cccc(/C(N)=N/O)c4)cc3c3cc(-c4cccc(/C(N)=N/O)c4)ccc32)cc1Br`, the EC50 worked out at 2.4 µM.

Regarding `N/C(=N\O)c1cccc(-c2ccc3c(c2)c2cc(-c4cccc(/C(N)=N/O)c4)ccc2n3CC(O)COc2ccccn2)c1` (stereo not given), the concentration for a half-maximal effect (EC50) was determined as 33.9 µM.

`N/C(=N\O)c1cccc(-c2ccc3c(c2)c2cc(-c4cccc(/C(N)=N/O)c4)ccc2n3Cc2ccc(F)cc2)c1`: the EC50 came out at 8.1 µM.

For the compound `COc1ccc(Cn2c3ccc(-c4cccc(/C(N)=N/O)c4)cc3c3cc(-c4cccc(/C(N)=N/O)c4)ccc32)cc1F`, the concentration for a half-maximal effect (EC50) came out at 6.9 µM.

With `COc1ccc(S(=O)(=O)n2c3ccc(-c4cccc(/C(N)=N/O)c4)cc3c3cc(-c4cccc(/C(N)=N/O)c4)ccc32)cc1F`, the concentration giving a half-maximal response (EC50) stood at 2.7 µM.

Turning to `CCn1c2ccc(-c3cccc(/C(N)=N/O)c3)cc2c2cc(-c3cccc(/C(N)=N/O)c3)ccc21`, the EC50 turned out to be 1.5 µM.

On to `N/C(=N\O)c1cccc(-c2ccc3c(c2)c2cc(-c4cccc(/C(N)=N/O)c4)ccc2n3Cc2cc(F)cc(Br)c2)c1`, for which the EC50 was 1.5 µM.

Take `COc1ccc(S(=O)(=O)n2c3ccc(-c4cccc(/C(N)=N/O)c4)cc3c3cc(-c4cccc(/C(N)=N/O)c4)ccc32)cc1C`: the half-maximal effective concentration (EC50) is 3.1 µM.

With `COc1ccc(Br)cc1S(=O)(=O)n1c2ccc(-c3cccc(/C(N)=N/O)c3)cc2c2cc(-c3cccc(/C(N)=N/O)c3)ccc21`, the EC50 stood at 4.9 µM.

Take `COc1ccc(OC)c(S(=O)(=O)n2c3ccc(-c4cccc(/C(N)=N/O)c4)cc3c3cc(-c4cccc(/C(N)=N/O)c4)ccc32)c1`: the EC50 stood at 5.1 µM.

Regarding `N/C(=N\O)c1cccc(-c2ccc3c(c2)c2cc(-c4cccc(/C(N)=N/O)c4)ccc2n3S(=O)(=O)c2cccc(Cl)c2)c1`, the 50% effective concentration (EC50) is 7.6 µM.

For `Cc1ccccc1S(=O)(=O)n1c2ccc(-c3cccc(/C(N)=N/O)c3)cc2c2cc(-c3cccc(/C(N)=N/O)c3)ccc21`, the EC50 was 8.6 µM.

For `N/C(=N\O)c1cccc(-c2ccc3c(c2)c2cc(-c4cccc(/C(N)=N/O)c4)ccc2n3S(=O)(=O)c2cc(F)cc(Br)c2)c1`, the EC50 was 17.3 µM.

For the compound `N/C(=N\O)c1cccc(-c2ccc3c(c2)c2cc(-c4cccc(/C(N)=N/O)c4)ccc2n3CC(O)CS(=O)(=O)c2cccc(F)c2)c1` (stereo not given), the EC50 was determined as 8.7 µM.

The record behind these values is ChEMBL document CHEMBL4842342, “Amidoxime prodrugs convert to potent cell-active multimodal inhibitors of the dengue virus protease” (Eur J Med Chem, 2021).
